In one assay the test system is PATU‐T GR. As to the kind of experiment: Wound healing assay, PATU‐T GR. The format is cell-based. The note with it: 1× and 4 × IC50, up to 24 h. The procedure:
The wound healing assay was used to test the migratory ability of the selected cells post‐treatment. Cells (5 × 10^4 /well) were seeded on 96‐well. After 24 h, cells reached the optimal 100% confluency, and an artificial wound was created with a 96‐well Pintool Scratcher. The cells were immediately washed with complete medium, in order to remove cell debris after the scratch, and images of the wells were captured at time 0 h, right before the addition of the treatment. Each drug (1b and 1g) was previously diluted in the respective medium at two different concentrations: 1 × IC50 and 4 × IC50 (according to the cell specific IC50 value) and were then added to the cells. Images were then taken at timepoints 4, 8, 20, and 24 h using the Leica microscope with a JAI TMC‐137 camera to assess wound closure. The images were analyzed using the Universal Grab 6.3 software (DCILabs), and the obtained data were used to determine the percentage of migration of the cells, using the following formula. (2) % Migration=Mean width of the wound atT=0−Mean width of the wound atT=X/Mean width of the wound atT=0×100

Assay [1] concerns PDAC3. As to the kind of experiment: Annexin V apoptosis assay, PDAC3. The format is cell-based. As to conditions: 1 × IC50. On the procedure:
In order to investigate the apoptotic properties of the compounds 1b and 1g, the Annexin V apoptosis assay was performed. Annexins are calcium‐dependent phospholipid binding proteins, which are able to bind to phosphatidylserine (PS). The externalization of PS residues on the outer membrane of apoptotic cells can be detected by Annexin V.
For this assay, cells were seeded in a 96‐well plate at a concentration of 13.5 × 10^3 and 4.5 × 10^3 /well respectively for the 24 and 72 h experiments. The next day cells were treated with compounds 1b and 1g at 1 × IC50 and 4 × IC50 concentrations. The apoptosis assay was performed 24 and 72 h post‐treatment following the BD Pharmingen FITC Annexin V Apoptosis Detection Kit I (BD Biosciences, 556,547). The supernatant was aspirated, and cells were washed with phosphate‐buffered saline (PBS). Cells were consequently treated with binding buffer BBA + Annexin V (1:100) and were incubated in the dark at RT for 10 min. The supernatant was removed, and the cells were washed with BBA (1:10). Cells were then incubated with BBA + PI (1:100) and were immediately read with the spectrophotometer at ex. 485/ em. 535. Two different programs were used to read the Annexin V and the PI absorbance. Lastly, 100 µL of PBS were added to each well before being fixed with TCA. This was followed by the SRB assay to standardize fluorescence data according to cell count. Data were exported into GraphPad Prism 10 for statistical analysis.

In assay [2] the target is phosphorylated CDK7 (p‐CDK7) (Homo sapiens, UniProt P50613). As to the kind of experiment: Phospho‐CDK7 (Thr170) cell‐based ELISA, SUIT 2.28. More on the design: two PDAC preclinical models (SUIT 2.28 and PDAC3); endogenous in cells; host or cells: SUIT 2.28. The note with it: SUIT 2.28, 4 × IC50, ELISA. On the procedure:
To detect CDK7 and phospho‐CDK7 levels at Thr170 residue after treatment, an enzyme‐linked immunosorbent assay (Biomatik, Phospho‐CDK7 (Thr170) Colorimetric Cell‐Based ELISA Kit, Cat# EKA51274) was performed according to the manufacturer's protocols. […] The absorbance was read at 450 nm using a microplate reader.
For orientation: In an ELISA, binding on a coated surface is turned into a signal by an enzyme label.

For assay [3], the system named is PDAC3. Nature of the assay: SRB chemosensitivity assay, primary PDAC3 cells. The format is cell-based. The procedure:
Three lines of immortalized PDAC cells were selected as representative phenotypes: mesenchymal (PATU‐T), quasimesenchymal (PANC‐1), and an epithelial clone of SUIT 2 cells (SUIT 2.28). Cells were cultured in noncoated T‐75 and T‐25 flasks under adherent conditions, using 1× DMEM (Gibco, 41,966,029) for PATU‐T and RPMI (Gibco, 21,875,034) for SUIT 2.28 and PANC‐1, both supplemented with 10% NBCS and 1% P/S. Additional employed models were the PDAC3 cells, a primary cell culture, the PSCs, which were immortalized healthy pancreatic cells, and the PATU‐T‐GR, which was a gemcitabine resistant model of PATU‐T. PDAC3 and PSCs were cultivated using complete RPMI medium, while PATU‐T‐GR required complete DMEM medium. For seeding, cells were detached with Trypsin‐EDTA (0.05%) (GibcoTM, 25,300–096) and were consequently counted using the Automated Cell Counter (Luna‐II, Westburg). Cells were then plated on 96‐ or 6‐well plates depending on the planned experiment.
The Sulforhodamine B (SRB) chemosensitivity assay was used to measure cytotoxicity and cell proliferation post drug treatment. At day 0, 3–6 × 10^3 cells were seeded in a 96‐well plate, depending on the cell line. At day 1, cells were attached and ready to be treated. For the calculation of the IC50, drug dilutions for the compounds 1b, 1c, 1d, 1e, 1g, 1hr, 1i, 1j, and LDC4297 (MedChemExpress, HY‐12,653) were prepared in dilution trays and eight different concentrations were included. These were added in triplicates to the cells, which were then incubated for […] at 37 °C in 5% CO2. During day 1, the control plate was fixed with 50% Trichloroacetic acid (TCA), as intended to be the baseline plate used for the normalization of the data. 72 h post‐treatment, the cells were fixed with TCA, and placed at 4 °C for about 2 h. The plates were then washed with distillated water and left to dry under the hood with ventilation. Subsequently, plates were stained with 0.4% SRB for 15 min and washed with 1% acetic acid to remove excess stain. Once dried again, the protein‐bound SRB was dissolved in 10 mM TRIS, and the plates were placed on a shaker for 10 min per plate. Lastly, the absorbance was measured at 492 nm with a spectrophotometer (Synergy HT, BioTek). The absorbance data obtained were normalized to the day 1 control, and the percentage of cell growth in relation to the control was calculated using the following formula. (1) %Cell growth=Mean OD treatment−Mean OD day0/Mean OD control−Mean OD day0×100
The percentage of proliferation and their respective standard deviations were used to perform statistical analysis in GraphPad Prism software v 10 (GraphPad Software, San Diego, CA). Data were normalized to the day 0 control and to their own untreated 72 h control. These were transformed into logarithmic data, and log(inhibitor) versus response analysis was performed for obtaining the IC50 values per cell lines. Each experiment was conducted in triplicates.
On the technique in general: The SRB assay estimates cell density from bound dye.

Another assay addresses CDK7 (Homo sapiens, UniProt P50613). Nature of the assay: In vitro CDK7 enzyme inhibition assay (ADP‐Glo). The format is biochemical. Set-up: purchased Promega Corporation VA7402.

Like-named read-outs stand apart in the source and are kept apart here.

Chain of CDK7 (P50613 whole entry): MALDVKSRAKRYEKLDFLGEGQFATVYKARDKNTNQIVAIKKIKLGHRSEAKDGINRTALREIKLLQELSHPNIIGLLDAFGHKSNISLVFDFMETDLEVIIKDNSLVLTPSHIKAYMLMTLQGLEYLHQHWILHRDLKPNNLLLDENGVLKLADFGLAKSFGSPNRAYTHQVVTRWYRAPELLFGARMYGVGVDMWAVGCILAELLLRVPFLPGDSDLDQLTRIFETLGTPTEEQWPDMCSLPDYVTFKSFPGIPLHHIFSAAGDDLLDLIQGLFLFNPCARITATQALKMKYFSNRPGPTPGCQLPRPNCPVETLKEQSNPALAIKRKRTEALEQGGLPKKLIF
Chain of CDK7 (P51946 whole entry partner): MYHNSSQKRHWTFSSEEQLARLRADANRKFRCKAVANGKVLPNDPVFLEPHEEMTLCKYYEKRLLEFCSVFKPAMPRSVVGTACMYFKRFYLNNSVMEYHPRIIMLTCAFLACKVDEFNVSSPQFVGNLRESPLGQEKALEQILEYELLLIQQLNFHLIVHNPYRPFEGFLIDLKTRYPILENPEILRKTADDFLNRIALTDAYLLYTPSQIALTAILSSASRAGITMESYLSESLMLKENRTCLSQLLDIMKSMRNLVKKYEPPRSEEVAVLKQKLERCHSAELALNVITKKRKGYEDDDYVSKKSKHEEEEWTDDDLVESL
Chain of CDK7 (P51948 whole entry partner): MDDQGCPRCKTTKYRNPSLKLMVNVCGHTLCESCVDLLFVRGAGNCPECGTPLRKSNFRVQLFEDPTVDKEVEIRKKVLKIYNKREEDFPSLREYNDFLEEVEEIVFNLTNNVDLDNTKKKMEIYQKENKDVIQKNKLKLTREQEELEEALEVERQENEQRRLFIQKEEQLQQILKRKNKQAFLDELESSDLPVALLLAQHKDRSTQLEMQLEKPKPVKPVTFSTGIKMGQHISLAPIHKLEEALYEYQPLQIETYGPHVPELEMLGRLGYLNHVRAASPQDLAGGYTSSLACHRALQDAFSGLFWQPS
Chain of phosphorylated CDK7 (p‐CDK7) (P50613 2-346 limits assumed): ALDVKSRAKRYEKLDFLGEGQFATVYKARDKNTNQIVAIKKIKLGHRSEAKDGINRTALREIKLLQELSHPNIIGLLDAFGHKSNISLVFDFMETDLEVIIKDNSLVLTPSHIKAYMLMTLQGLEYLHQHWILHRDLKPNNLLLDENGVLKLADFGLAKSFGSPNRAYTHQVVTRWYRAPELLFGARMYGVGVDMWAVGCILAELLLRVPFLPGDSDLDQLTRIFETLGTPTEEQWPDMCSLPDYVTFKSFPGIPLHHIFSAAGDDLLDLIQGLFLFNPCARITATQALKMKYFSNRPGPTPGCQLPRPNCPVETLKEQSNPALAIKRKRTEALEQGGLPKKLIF
Chain of phosphorylated CDK7 (p‐CDK7) (P51946 whole entry partner): as the sequence (P51946 whole entry partner) above
Chain of phosphorylated CDK7 (p‐CDK7) (P51948 whole entry partner): as the sequence (P51948 whole entry partner) above

Regarding `Nc1ncnc2cc(-c3c[nH]c4ccc(Br)cc34)nn12` [Compound 1b, 7‐(5‐Bromo‐1H‐indol‐3‐yl)pyrazolo[1,5‐a][1,3,5]triazin‐4‐amine], the “inhibition of cell migration” value in the assay with PATU‐T GR is given as “significantly inhibited as early as 4 h”. The apoptotic index result in the assay with PDAC3 [1] (PDAC3, 24 h) is “significant increase in apoptotic index”; in the assay on PDAC3 [1] (PDAC3, 72 h) it was “continued to show a significant rise”. For the same molecule, the “p‐CDK7 expression vs untreated” value in assay [2] is reported as “decrease in p‐CDK7 expression”. Moreover, the IC50 with PDAC3 [3] (PDAC-3, SRB, primary cell line, average ± SEM, triplicate, read-out: IC50 PDAC3) worked out at 1270 nM; in the assay on PDAC3 [3] (SRB, primary cell line, average ± SEM, triplicate, read-out: IC50 PDAC3) it was 1300 ± 200 nM; at CDK7 (ADP‐Glo assay, mean of triplicate experiments, read-out: CDK7 inhibition activity IC50), 25 nM.

As to `Cn1cc(-c2cc3ncnc(N)n3n2)c2cc(Br)ccc21` [Compound 1g, 7‐(5‐Bromo‐1‐methyl‐1H‐indol‐3‐yl)pyrazolo[1,5‐a][1,3,5]triazin‐4‐amine], the “inhibition of cell migration” value with PATU‐T GR was “significantly inhibited as early as 4 h”. Also, the apoptotic index entry in the assay with PDAC3 [1] (PDAC3, 24 h) is given as “significant increase in apoptotic index”; in the assay on PDAC3 [1] (PDAC3, 72 h), “continued to show a significant rise”. Besides, in assay [2], the “p‐CDK7 expression vs untreated” value is recorded as “decrease in p‐CDK7 expression”. Moreover, the IC50 with PDAC3 [3] (PDAC-3, read-out: IC50 PDAC3, SRB, primary cell line, average ± SEM, triplicate) amounted to 684 nM; in the assay with PDAC3 [3] (read-out: IC50 PDAC3, SRB, primary cell line, average ± SEM, triplicate), 700 ± 100 nM; against CDK7, 28 nM.

The IC50 is the midpoint of a concentration-inhibition curve.

These data come from publication PMC12503906, “Novel Pyrazolo [1,5‐a]−1,3,5‐Triazine Derivatives as CDK7 Inhibitors: Synthesis and Biological Insights in Pancreatic Ductal Adenocarcinoma Models” (Chemmedchem, 2025).
